From patent US11103619B2, “Anticalcification treatment for impantable biological tissues using calcitonin” (priority 2018, dated 2021)

Tested on: Porcine aortic leaflets implanted subdermally in male Wistar rats
Assay: Post-implantation calcium content of treated porcine aortic leaflets implanted subdermally in rats for 21 days, measured by atomic absorption
Type: in vivo
Details: for Cumulative results of post-implantation Ca concentration: mean ± STDEV, p < 0.05 vs Group I (Glut only, 126.95 ± 12.97); for Post implantation Ca Content: explanted after 21 days, mean
Method: In one embodiment, the method comprises placing the biological tissue for fixation and preservation in a buffered glutaraldehyde (Glut) solution 0.5% at pH 7.4, adding salmon synthetic calcitonin (CT), such as Miacalcic® of Novartis Hellas A.B.E. In this experiment, two different concentrations of calcitonin were tested. One with 1 unit/100 ml (1%) and the other with 10 units/100 ml (10%). The first fixation process lasted one hour, at a pressure between 2-3 mmHg and subsequently the biological tissues were embedded in an accordingly new solution for one week.
Porcine aortic leaflets were selected as fresh tissue from a local slaughter house and were cut radially in three parts. Following harvesting, the biological tissue is rinsed and maintained in cold Hepa saline solution (temperature between 4°-12° C.) between two to six hours.
Three groups of tissue were created. Group I (Glut only), Group II (Glut with 1% CT) and Group III (Glut with 10% CT). All tissues were then implanted subdermally in three sets of 8 (Group I), 9 (Group II) and 9 (Group III) male Wistar rats of 12 days old (Center for Experimental Surgery, Biomedical Research Foundation of the Academy of Athens). […] All tissues were rinsed three times in normal saline solution for 10 minutes each time before implantation. Each rat received four fragments of tissue at the dorsum, through four separate incisions (two at each side) each of 1 cm long, with a technique we have previously described elsewhere (Agathos E A et al: “In vivo calcification of glutaraldehyde fixed cardiac valve and pericardium of Phoca Groenlandica”: ASAIO 57(4):328-332, July/August 2011).
21 days later the rats were euthanized by inhalation of CO2. All procedures were approved by the Animal Care Committee of the Academy of Athens and performed according to the Guide for the Care and Use of Laboratory Animals prepared by the Institutes of Laboratory Animal Resources, National Research Council and published by the National Academy Press, revised 1996 (NIH publication No. 85-23). The tissues were retrieved and after rinsing with distilled water 3 times, were lyophilized at −40° C. at high vacuum pressure of approximately […] for 16 hours. The calcium content was then measured with flat atomic absorption technique.
For statistical analysis, the commercially available software package ANOVA Origin 8.0 for Windows (OriginLab Corporation, Northampton, Mass., USA) was used. P values of 0.05 or less were defined as a statistically significant difference.

salmon synthetic calcitonin [CT]
Ca concentration accumulation in the explanted tissues (fold, post vs pre implantation) (Group II (1% CT)): 5.16 ×
Cumulative results of post-implantation Ca concentration (Group II (1% CT), ns vs Group III): 24.69 ± 2.71
Post implantation Ca Content (Group II: Glut with 1% CT): 24.69 mg Ca/gr tissue
Ca concentration accumulation in the explanted tissues (fold, post vs pre implantation) (Group III (10% CT)): 9.43 ×
Cumulative results of post-implantation Ca concentration (Group III (10% CT), ns vs Group II): 27.16 ± 2.95
Post implantation Ca Content (Group III: Glut with 10% CT): 27.16 mg Ca/gr tissue
